Measured values reported in ChEMBL document CHEMBL3045490, “N-Thiophenylethyl-2,2-dichloro-1-cyclopropanecarboxamides: modification of the amide part of carpropamid and examination of fungicidal activity” (2009).

How the values were obtained:
Assay type in all cases: functional
Botrytis cinerea = assay: Antifungal activity against Botryotinia fuckeliana in cucumber cotyledon assessed as lesion area of the disease at 500 ug/ml after 4 days
Puccinia recondita = assay: Antifungal activity against Puccinia recondita in wheat plant assessed as lesion area of the disease at 500 ug/ml after 10 days
[1] = test system: Pseudoperonospora cubensis; assay: Antifungal activity against Pseudoperonospora cubensis in cucumber assessed as lesion area of the disease at 500 ug/ml after 7 days
Blumeria graminis = assay: Antifungal activity against Blumeria graminis in wheat plant assessed as lesion area of the disease at 500 ug/ml after 10 days

| Molecule | Activity (Botrytis cinerea) | Activity (Puccinia recondita) | Activity [1] | Activity (Blumeria graminis) |
| --- | --- | --- | --- | --- |
| CCC1(C(=O)NCc2ccc(Cl)cc2)C(C)C1(Cl)Cl (stereo unspecified) | >=80% | >=80% | <20% | >=80% |
| CCC1(C(=O)NCCCc2ccc(Cl)cc2)C(C)C1(Cl)Cl (stereo unspecified) | >=80% | >=80% | 0% | >=80% |
| CCC1(C(=O)NC(C)C2CC3C=CC2C3)C(C)C1(Cl)Cl (stereo unspecified) | <40% | >=80% | >=80% | >=80% |
| CC(NC(=O)C1(C(C)C)CC1(Cl)Cl)c1ccc(Cl)cc1 (stereo unspecified) | >=80% | <20% | >=80% | >=80% |
| CCC1(C(=O)NCCc2ccc(Cl)s2)C(C)C1(Cl)Cl (stereo unspecified) | >=80% | 1.5% | >=80% | >=80% |
| CCC1(C(=O)NC(C)Cc2ccc(Cl)cc2)C(C)C1(Cl)Cl (stereo unspecified) | >=80% | >=80% | >=80% | >=80% |
| CCC1(C(=O)Nc2ccc(Cl)cc2)C(C)C1(Cl)Cl (stereo unspecified) | >=80% | >=80% | >=80% | >=80% |
| CCC1(C(=O)NC(C)c2ccc(Cl)s2)C(C)C1(Cl)Cl (stereo unspecified) | >=80% | 1.5% | >=80% | >=80% |
| CCC1(C(=O)NCCc2ccc(Cl)c(Cl)c2)C(C)C1(Cl)Cl (stereo unspecified) | >=80% | 3.5% | 0% | >=80% |
| CCCC1(C(=O)NCCc2csc(Cl)c2)CC1(Cl)Cl (stereo unspecified) | 0.5% | >=80% | >=80% | >=80% |
| maneb |  | 0% | 0% |  |
| CCC(C)NC(=O)C1(CC)C(C)C1(Cl)Cl (stereo unspecified) | <20% | >=80% | >=80% | >=80% |
| CC(C)(C)C(Cl)C(=O)NCCc1csc(Cl)c1 (stereo unspecified) | >=80% | >=80% | >=80% | >=80% |
| CCC1(C(=O)NCCc2ccc(C(F)(F)F)cc2)C(C)C1(Cl)Cl (stereo unspecified) | >=80% | >=80% | >=80% | 0.5% |
| CC(C)(C)C(Br)C(=O)NCCc1csc(Cl)c1 (stereo unspecified) | >=80% | <20% | >=80% | >=80% |
| N#Cc1c[nH]cc1-c1cccc2c1OC(F)(F)O2 [FLUDIOXONIL] | 0% |  |  |  |
| CCC1(C(=O)NCCc2ccsc2)C(C)C1(Cl)Cl (stereo unspecified) | >=80% | <40% | >=80% | >=80% |
| CCC1(C(=O)NC(C)C2CC2(Cl)Cl)C(C)C1(Cl)Cl (stereo unspecified) | >=80% | >=80% | >=80% | >=80% |
| CCC1(C(=O)NCCc2cc(Cl)sc2Cl)C(C)C1(Cl)Cl (stereo unspecified) | >=80% | >=80% | >=80% | >=80% |
| CCC1(C(=O)NCCc2ccc(Cl)cc2Cl)C(C)C1(Cl)Cl (stereo unspecified) | >=80% | >=80% | >=80% | >=80% |
| CCC1(C(=O)NCC(C)c2ccc(Cl)cc2)C(C)C1(Cl)Cl (stereo unspecified) | >=80% | >=80% | <20% | >=80% |
| CCC1(C(=O)NCCc2ccc(F)cc2F)C(C)C1(Cl)Cl (stereo unspecified) | <20% | >=80% | 0% | 2.5% |
| CC1(C)C(C(=O)NCCc2csc(Cl)c2)C1(Cl)Cl (stereo unspecified) | >=80% | 1.5% | 1.5% | >=80% |
| CCC1(C(=O)NC(C)C2CCCCCC2)C(C)C1(Cl)Cl (stereo unspecified) | >=80% | >=80% | 0% | >=80% |
| CCC1(C(=O)NCCc2csc(Cl)n2)C(C)C1(Cl)Cl (stereo unspecified) | >=80% | 0.5% | 0% | >=80% |
| CCC1(C(=O)NCCc2ccccc2Cl)C(C)C1(Cl)Cl (stereo unspecified) | >=80% | >=80% | >=80% | >=80% |

| Molecule | Activity (Botrytis cinerea) | Activity (Puccinia recondita) | Activity [1] | Activity (Blumeria graminis) |
| --- | --- | --- | --- | --- |
| CC(C)(C)CC(=O)NCCc1csc(Cl)c1 | >=80% | >=80% | >=80% | 1.5% |
| CC(C)(C)C(C#N)C(=O)NCCc1csc(Cl)c1 (stereo unspecified) | >=80% | 1.5% | >=80% | >=80% |
| CCC1(C(=O)NCCc2ccc(Br)cc2)C(C)C1(Cl)Cl (stereo unspecified) | >=80% | >=80% | >=80% | >=80% |
| CCC1(C(=O)NC(C)C2CCCCC2)C(C)C1(Cl)Cl (stereo unspecified) | >=80% | >=80% | >=80% | >=80% |
| CC1(C)C(Cl)(Cl)C1(C)C(=O)NCCc1csc(Cl)c1 (stereo unspecified) | >=80% | 0.5% | >=80% | <20% |
| CCC1(C(=O)NC(C)CC(F)(F)F)C(C)C1(Cl)Cl (stereo unspecified) | >=80% | >=80% | >=80% | >=80% |
| CCC1(C(=O)NCCc2cc(Cl)cs2)C(C)C1(Cl)Cl (stereo unspecified) | >=80% | <40% | >=80% | >=80% |
| CCC1(C(=O)NC(C)c2csc(Cl)c2)C(C)C1(Cl)Cl (stereo unspecified) | >=80% | >=80% | <20% | >=80% |
| CCC1(C(=O)NCCc2csc(Cl)c2)C(C)C1(Cl)Cl (stereo unspecified) | >=80% | >=80% | 0.5% | >=80% |
| CC(NC(=O)C1(c2ccccc2)CC1(Cl)Cl)c1ccc(Cl)cc1 (stereo unspecified) | >=80% | >=80% | >=80% | >=80% |
| CCC1(C(=O)NCCc2cccc(Cl)c2)C(C)C1(Cl)Cl (stereo unspecified) | >=80% | <40% | 0% | 2.5% |
| CC1(C(=O)NCCc2csc(Cl)c2)CC1(Cl)Cl (stereo unspecified) | >=80% | 0.5% | 0.5% | >=80% |
| CCC1(C(=O)OCCc2csc(Cl)c2)C(C)C1(Cl)Cl (stereo unspecified) | 2.5% | >=80% | <20% | >=80% |
| CCC1(C(=O)NCCc2ccccc2)C(C)C1(Cl)Cl (stereo unspecified) | >=80% | 1.5% | 0% | 0.5% |
| CCC1(C(=O)NC(C)C2CCCC2)C(C)C1(Cl)Cl (stereo unspecified) | 3.5% | >=80% | 0% | >=80% |
| CCC1(C(=O)NCCc2ccc(C)cc2)C(C)C1(Cl)Cl (stereo unspecified) | >=80% | >=80% | >=80% | 2.5% |
| CCC1(C(=O)NC(C)C2CCC2)C(C)C1(Cl)Cl (stereo unspecified) | >=80% | >=80% | >=80% | >=80% |
| CC(NC(=O)C1(C2CCCC2)CC1(Cl)Cl)c1ccc(Cl)cc1 (stereo unspecified) | >=80% | >=80% | >=80% | >=80% |
| CCC1(C(=O)NC(C)C)C(C)C1(Cl)Cl (stereo unspecified) | 3.5% | >=80% | 0% | >=80% |
| CCC1(C(=O)NCCc2cc(Br)cs2)C(C)C1(Cl)Cl (stereo unspecified) | <40% | >=80% | 0% | >=80% |
| CCC1(C(=O)NCCc2ccc(F)cc2)C(C)C1(Cl)Cl (stereo unspecified) | >=80% | <40% | >=80% | <20% |
| CC(Cc1ccc(C(C)(C)C)cc1)CN1CCCCC1 (stereo unspecified) [FENPROPIDIN] |  |  |  | 0% |
| CCC1(C(=O)NCCc2cc(Cl)c(Cl)s2)C(C)C1(Cl)Cl (stereo unspecified) | >=80% | >=80% | >=80% | >=80% |
| CCC1(C(=O)NCCc2ccc(Cl)cc2)C(C)C1(Cl)Cl (stereo unspecified) | >=80% | >=80% | 3.5% | >=80% |
| CC[C@@]1(C(=O)N[C@H](C)c2ccc(Cl)cc2)[C@@H](C)C1(Cl)Cl [CARPROPAMIDE] | >=80% | >=80% | 0.5% | >=80% |
